From patent US6825354B2 (Wyeth Holdings Corporation, priority 1999, dated 2004)
Where a name gives a salt, the structure may show the parent alone.

Biological target: T1, MMP-1 (Homo sapiens, UniProt P03956)
T1 sequence (P03956 100-469): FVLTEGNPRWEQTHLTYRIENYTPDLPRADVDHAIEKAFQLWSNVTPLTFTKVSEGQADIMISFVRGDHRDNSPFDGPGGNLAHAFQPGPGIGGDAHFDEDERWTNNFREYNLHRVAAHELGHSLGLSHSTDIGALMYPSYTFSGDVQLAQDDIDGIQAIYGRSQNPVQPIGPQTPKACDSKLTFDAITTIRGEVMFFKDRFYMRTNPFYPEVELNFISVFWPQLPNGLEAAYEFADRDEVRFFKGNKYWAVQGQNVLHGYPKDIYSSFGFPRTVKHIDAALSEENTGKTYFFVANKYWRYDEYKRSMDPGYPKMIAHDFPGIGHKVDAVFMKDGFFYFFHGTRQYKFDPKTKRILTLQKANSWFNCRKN
Assay: MMP-1 inhibition, thiopeptide or fluorescent peptide substrate
Type: biochemical
Conditions: Table 1, first part; read-out: MMP1 IC50
Method: The enzyme activity is measured by the rate of the color increase. The thiopeptide substrate is made up fresh as a 20 mM stock in 100% DMSO and the DTNB is dissolved in 100% DMSO as a 100 mM stock and stored in the dark at room temperature. Both the substrate and DTNB are diluted together to 1 mM with substrate buffer (50 mM HEPES pH 7.5, 5 mM CaCl2) before use. The stock of enzyme is diluted with buffer (50 mM HEPES, pH 7.5, 5 mM CaC12, 0.02% Brij) to the desired final concentration.
Alternatively, a fluorescent peptide substrate is used. In this test procedure, the peptide substrate contains a fluorescent group and a quenching group. Upon cleavage of the substrate by an MMP, the fluorescence that is generated is quantitated on the fluorescence plate reader. The assay is run in HCBC assay buffer (50 mM HEPES, pH 7.0, 5 mM Ca^+2, 0.02% Brij, 0.5% Cysteine), with human recombinant MMP-1, MMP-9, or MMP-13. The substrate is dissolved in methanol and stored frozen in 1 mM aliquots. For the assay, substrate and enzymes are diluted in HCBC buffer to the desired concentrations. Compounds are added to the 96 well plate containing enzyme and the reaction is started by the addition of substrate.
For either the thiopeptide or fluorescent peptide test procedures, the slope of the line is calculated and represents the reaction rate. […] The mean (x±sem) of the control rate is calculated and compared for statistical significance (p<0.05) with drug-treated rates using Dunnett's multiple comparison test.

Row | Molecule | IC50
1 | 1-Methyl-1H-pyrrole-2-carboxylic acid {[5-(4-but-2-ynyloxy-benzenesulfinyl)-5-hydroxy-carbamoylpentyl-carbamoyl]-methyl}-amide [Example 61] | 5600 nM
2 | 2-(4-But-2-ynyloxy-benzenesulfinyl)-6-(4-thiophen-2-yl-butyrylamino)-hexanoic acid hydroxyamide [Example 58] | 4600 nM
3 | 2-(4-But-2-ynyloxy-benzenesulfinyl)-6-[2-(3,4-dichloro-phenyl)-acetylamino]-hexanoic acid hydroxyamide [Example 57] | 4600 nM
4 | 9H-Xanthene-9-carboxylic acid [5-(4-but-2-ynyloxy-benzenesulfinyl)-5-hydroxycarbamoyl-pentyl]-amide [Example 59] | 3400 nM
5 | N-[5-(4-But-2-ynyloxy-benzenesulfinyl)-5-hydroxycarbamoyl-pentyl]-2-phenethyl-benzamide [Example 56] | 3900 nM
6 | Quinoline-3-carboxylic Acid [5-(4-but-2-ynyloxy-benzenesulfinyl)-5-hydroxycarbamoyl-pentyl]-amide [Example 53] | 4000 nM

System: not given
Assay: not given
Conditions: not given

Row | Molecule | melting point
7 | CC#CCOc1ccc(S(=O)(=O)C(C)(Cc2ccc(OCCN3CCCCC3)cc2)C(=O)NO)cc1 (stereo not drawn) (as salt: hydrochloride) [Example 1, 2-(4-But-2-ynyloxy-benzenesulfonyl)-N-hydroxy-2-methyl-3-[4-(2-piperidin-1-yl-ethoxy)-phenyl]-propionamide] | 114 to 116 °C
8 | CC#CCOc1ccc(S(=O)(=O)C(C)(Cc2cccnc2)C(=O)NO)cc1 (stereo not drawn) (as salt: hydrochloride) [Example 3, 2-(4Buty-2-ynyloxy-phenylsulfonyl)-N-hydroxy-2-methyl-3-pyridin-3-ylpropionamide] | 154 to 156 °C
9 | CC#CCOc1ccc(S(=O)(=O)C(C)(Cc2ccc(-c3ccccc3)cc2)C(=O)NO)cc1 (stereo not drawn) [Example 2, 3-Biphenyl-4-yl-2-(4-Buty-2-ynyloxy-phenylsulfonyl)-N-hydroxy-2-methyl-propionamide] | 92 to 94 °C
10 | CC#CCOc1ccc(SC(C)C(=O)NO)cc1 (stereo not drawn) [Example 4, 2-(4-Buty-2-ynyloxy-phenylsulfanyl)-N-hydroxy-propionamide] | 102 to 104 °C
11 | CC#CCOc1ccc(SC(CCCCCC)C(=O)NO)cc1 (stereo not drawn) [Example 6, 2-(4-But-2-ynyloxy-phenylsulfanyl)-octanoic Acid Hydroxamide] | 125 °C
12 | CC#CCOc1ccc([S@@+]([O-])[C@@H](CCCCCC)C(=O)NO)cc1 [Example 8, (S)-2-[(S)-[4-(2-Butynyloxy)phenylsulfinyl)]-N-hydroxyoctanamide] | 112.2 °C
13 | CC#CCOc1ccc(OCCC(=O)NO)cc1 [Example 9, 3-(4-But-2-ynyloxy-phenoxy)-N-hydroxy-propionamide] | 116 to 118 °C
14 | CC#CCOc1ccc(OCCCC(=O)NO)cc1 [Example 10, 4-(4-But-2-ynyloxy-phenoxy)-N-hydroxy-butyramide] | 123 to 125 °C
15 | CC#CCOc1ccc(OCC(=O)NO)cc1 [Example 11, 2-(4-But-2-ynyloxy-phenoxy)-N-hydroxy-acetamide] | 130 to 132 °C
16 | CC#CCOc1ccc(S(=O)(=O)C(C(=O)NO)C2CCN(C(C)=O)CC2)cc1 (stereo not drawn) [Example 121, 2-(1-acetyl-4-piperidinyl)-2-{[4-(2-butynyloxy)phenyl]sulfonyl}-N-hydroxyacetamide] | 103 °C
17 | CC#CCOc1ccc(S(=O)(=O)C(C(=O)NO)C2CCSCC2)cc1 (stereo not drawn) [Example 123, 2-{[4-(2-Butynyloxy)phenyl]sulfonyl}-N-hydroxy-2-tetrahydro-2H-thiopyran-4yl-acetamide] | 175 to 177 °C

Biological target: TNF-α converting enzyme (TACE) (Homo sapiens, UniProt P78536)
Sequence (P78536 215-824): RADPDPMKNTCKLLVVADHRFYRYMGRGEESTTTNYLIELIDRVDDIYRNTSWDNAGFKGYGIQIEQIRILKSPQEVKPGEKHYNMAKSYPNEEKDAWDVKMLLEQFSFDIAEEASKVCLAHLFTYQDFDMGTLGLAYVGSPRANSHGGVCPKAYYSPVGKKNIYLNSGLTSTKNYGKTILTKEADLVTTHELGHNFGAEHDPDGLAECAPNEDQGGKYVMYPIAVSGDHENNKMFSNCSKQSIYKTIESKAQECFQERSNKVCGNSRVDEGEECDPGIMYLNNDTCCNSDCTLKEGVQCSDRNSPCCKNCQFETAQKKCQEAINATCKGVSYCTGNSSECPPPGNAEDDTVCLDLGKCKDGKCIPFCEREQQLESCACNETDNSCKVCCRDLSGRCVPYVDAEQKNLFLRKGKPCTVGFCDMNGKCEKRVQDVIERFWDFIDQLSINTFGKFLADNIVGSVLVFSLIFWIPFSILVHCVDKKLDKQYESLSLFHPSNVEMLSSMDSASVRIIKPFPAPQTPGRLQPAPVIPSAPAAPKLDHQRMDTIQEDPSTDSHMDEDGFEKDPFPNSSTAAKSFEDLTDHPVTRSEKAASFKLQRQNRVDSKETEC
Assay: TACE inhibition, fluorescent peptidyl substrate
Type: biochemical
Conditions: not given
Method: […] The reaction is initiated by addition of a fluorescent peptidyl substrate (final concentration 100 μM) to each well and then shaking on a shaker for 5 sec.
The reaction is read (excitation 340 nm, emission 420 nm) for 10 min. and the increase in fluorescence over time is plotted as a linear line. The slope of the line is calculated and represents the reaction rate.
The mean (x±sem) of the control rate is calculated and compared for statistical significance (p<0.05) with drug-treated rates using Dunnett's multiple comparison test.

Row | Molecule | IC50
18 | CC#CCOc1ccc([S+]([O-])[C@H](C(=O)NO)c2ccc(OC)cc2)cc1 (single isomer, unassigned) [Example 78] | 17.6 nM

Same assay, conditions: Table 1, first part; read-out: TACE IC50

Row | Molecule | IC50
19 | 1-Methyl-1H-pyrrole-2-carboxylic acid {[5-(4-but-2-ynyloxy-benzenesulfinyl)-5-hydroxy-carbamoylpentyl-carbamoyl]-methyl}-amide [Example 61] | 22.5 nM
20 | 2-(4-But-2-ynyloxy-benzenesulfinyl)-6-(4-thiophen-2-yl-butyrylamino)-hexanoic acid hydroxyamide [Example 58] | 20.1 nM
21 | 2-(4-But-2-ynyloxy-benzenesulfinyl)-6-[2-(1,3-dioxo-1,3-dihydro-isoindol-2-yl)-acetylamino]-hexanoic acid hydroxyamide [Example 55] | 38.5 nM
22 | 2-(4-But-2-ynyloxy-benzenesulfinyl)-6-[2-(3,4-dichloro-phenyl)-acetylamino]-hexanoic acid hydroxyamide [Example 57] | 24.4 nM
23 | 9H-Xanthene-9-carboxylic acid [5-(4-but-2-ynyloxy-benzenesulfinyl)-5-hydroxycarbamoyl-pentyl]-amide [Example 59] | 22.6 nM
24 | CC#CCOc1ccc([S+]([O-])C(CCCCNC(=O)c2nccc3ccccc23)C(=O)NO)cc1 (stereo not drawn) [Example 31, Isoquinoline-1-carboxylic acid [5-(4-but-2-ynyloxy-benzenesulfinyl)-5-hydroxycarbamoyl-pentyl]-amide] | 28.3 nM
25 | CC#CCOc1ccc(S(=O)(=O)C(CCCCNC(=O)Cc2ccc(Cl)c(Cl)c2)C(=O)NO)cc1 (stereo not drawn) [Example 37, 2-(4-But-2-ynyloxy-benzenesulfonyl)-6-[2-(3,4-dichloro-phenyl)-acetylamino]-hexanoic acid hydroxyamide] | 43.7 nM
26 | CC#CCOc1ccc(SC(CCCCNC(=O)CNC(=O)Cc2ccc(Cl)c(Cl)c2)C(=O)NO)cc1 (stereo not drawn) [Example 43, 2-(4-but-2-ynyloxy-phenylsulfanyl)-6-{2-[2-(3,4-dichloro-phenyl)-acetylamino]-acetylamino}-hexanoic acid hydroxyamide] | 32.5 nM
27 | CC#CCOc1ccc(S(=O)(=O)C(CCCCNC(=O)CNC(=O)Cc2ccc(Cl)c(Cl)c2)C(=O)NO)cc1 (stereo not drawn) [Example 65, 2-(4-But-2-ynyloxy-benzenesulfonyl)-6-{2-[2-(3,4-dichloro-phenyl)-acetylamino]-acetylamino}-hexanoic acid hydroxyamide] | 52.1 nM
28 | N-[5-(4-But-2-ynyloxy-benzenesulfinyl)-5-hydroxycarbamoyl-pentyl]-2-phenethyl-benzamide [Example 56] | 21.9 nM
29 | N-[5-(4-But-2-ynyloxy-phenylsulfanyl)-5-hydroxycarbamoyl-pentyl]-2-phenethyl-benzamide [Example 15] | 138 nM
30 | N-{[5-(4-But-2-ynyloxy-phenylsulfanyl)-5-hydroxy-carbamoyl-pentylcarbamoyl]-methyl}-2-phenethyl-benzamide [Example 46] | 84.2 nM
31 | Quinoline-2-carboxylic acid [5-(4-but-2-ynyloxy-benzenesulfinyl)-5-hydroxycarbamoyl-pentyl]-amide [Example 54] | 27.2 nM
32 | Quinoline-3-carboxylic Acid [5-(4-but-2-ynyloxy-benzenesulfinyl)-5-hydroxycarbamoyl-pentyl]-amide [Example 53] | 15.2 nM

Same assay, conditions: Table 1, second part; footnote a: % @ 10 μM

Row | Molecule | TACE % @ 10 μM
33 | CC#CCOc1ccc(S(=O)(=O)C(C(=O)NO)c2ccc(-c3cccs3)cc2)cc1 (stereo not drawn) [Example 91, 2-{[4-(2-butynyloxy)phenyl]sulfonyl}-N-hydroxy-2-[4-(2-thienyl)phenyl]acetamide] | 48%
34 | CC#CCOc1ccc(SC(C(=O)NO)c2ccc3ccccc3c2)cc1 (stereo not drawn) [Example 114, 2-{[4-(2-Butynyloxy)phenyl]sulfanyl}-2-(2-naphthyl)-N-hydroxyacetamide] | 40.90%

Same assay, conditions: Table 1, second part; footnote a: IC50 (nM); read-out: TACE IC50

Row | Molecule | IC50
35 | CC#CCOc1ccc([S+]([O-])[C@@H](C(=O)NO)c2ccc(-c3cccs3)cc2)cc1 (stereo partly drawn) [Example 90, (2R)-2-{[4-(2-butynyloxy)phenyl]sulfinyl}-N-hydroxy-2-[4-(2-thienyl)phenyl]ethanamide] | 682 nM
36 | CC#CCOc1ccc(SC(C(=O)NO)c2ccc(F)cc2)cc1 (stereo not drawn) [Example 95] | 108 nM
